Assay results as given in patent US12583818B2 (DAEGU-GYEONGBUK MEDICAL INNOVATION FOUNDATION, priority 2020, dated 2026).

target: T1, Pin1 (Homo sapiens, UniProt Q13526); experiment: Evaluation of Pin1 enzyme inhibitory activity (Sensolyte Green Pin1 assay kit); format: biochemical; details: Table 2; read-out: concentration at which Pin1 inhibitory activity was exhibited
T1 construct: purchased Anaspec
Procedure: In order to evaluate the Pin1 enzyme inhibitory activity of the compound represented by formula 1 according to the present invention, the following experiment was performed, and the results are shown in Table 2 below.
The enzyme activity of Pin1 protein was measured using a sensolyte Green Pin1 assay kit of Anaspec. The substrate was diluted in a buffer at a ratio of 1:100 to prepare a concentration of 1 μM, and the protein was diluted in a buffer at a ratio of 1:20 to prepare a concentration of 50 μg/ml. In addition, a developing solution was prepared by diluting thereof in a buffer at a ratio of 1:100.
The compound prepared in each example was diluted with DMSO and prepared at a concentration of 100 μM, 10 μM, 1 μM or 0.1 μM using a buffer. After sequentially adding 10 μl of the compound prepared in each Example diluted to four concentrations according to the above method, 10 μl of Pin1 protein, and 30 μl of the developing solution to each well of a black 96-well plate, […]. Finally, 50 μl of the substrate was added to each well of the plate, and the enzyme reaction was carried out after shaking the plate for 10 seconds.
Then, the plate was incubated for 2 hours at room temperature in an environment without light, and the fluorescence values at 490 nm/520 nm wavelength were measured using a device of Synergy Neo […]. The results are shown in Table 2 below by dividing the grades of A to D for each concentration (μM) at which the Pin1 enzyme activity is inhibited.

T1 sequence (Q13526 whole entry): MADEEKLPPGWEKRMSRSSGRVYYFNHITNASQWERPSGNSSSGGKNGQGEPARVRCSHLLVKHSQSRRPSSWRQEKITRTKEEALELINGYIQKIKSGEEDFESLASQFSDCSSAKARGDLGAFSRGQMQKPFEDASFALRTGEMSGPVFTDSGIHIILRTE

IC50, < 1 µM:
CC1CN(CCCOc2ccc(S(=O)(=O)NCCCc3c[nH]c4ccc(Cl)cc34)cc2)CCN1 (centres unmarked) [Example 107, N-(3-(5-chloro-1H-indole-3-yl)propyl)-4-(3-(3-methylpiperazine-1-yl)propoxy)benzenesulfonamide]

same assay, conditions: concentration at which the Pin1 enzyme activity is inhibited; 2 hours at room temperature, fluorescence 490 nm/520 nm; read-out: Pin 1 inhibition

IC50, > 100 µM:
CN(C)CCCOc1ccc(S(=O)(=O)NCCc2nc3ccccc3[nH]2)cc1 [Example 37, N-(2-(1H-benzo[d]imidazol-2-yl)ethyl)-4-(3-(dimethylamino)propoxy)benzenesulfonamide]
CCCCOc1ccc(S(=O)(=O)NCCc2c[nH]c3ccccc23)cc1 [Example 24, N-(2-(1H-indol-3-yl)ethyl)-4-butoxybenzenesulfonamide]
CCCCOc1ccc(S(=O)(=O)NCCCC2CCCCC2)cc1 [Example 4, 4-butoxy-N-(3-cyclohexylpropyl)benzenesulfonamide]
COC(=O)c1ccc(CCNS(=O)(=O)c2ccc(OCCCN(C)C)cc2)cc1 [Example 16, methyl 4-(2-(4-(3-(dimethylamino)propoxy)phenylsulfonamido)ethyl)benzoate]
CN(C)CCCOc1ccc(S(=O)(=O)NCCCn2ccc3ccccc32)cc1 [Example 39, N-(3-(1H-indol-1-yl)propyl)-4-(3-(dimethylamino)propoxy)benzenesulfonamide]

IC50, < 1 µM:
CC1CN(CCCOc2ccc(S(=O)(=O)NCCCc3c[nH]c4ccc(Cl)cc34)cc2)CCN1 (centres unmarked) [Example 107, N-(3-(5-chloro-1H-indole-3-yl)propyl)-4-(3-(3-methylpiperazine-1-yl)propoxy)benzenesulfonamide]

IC50, 10 to 100 µM:
CC(C)C(=O)N1CCN(CCCOc2ccc(S(=O)(=O)NCCCc3c[nH]c4ccc(F)cc34)cc2)CC1 [Example 73, N-(3-(5-fluoro-1H-indol-3-yl)propyl)-4-(3-(4-isobutyrylpiperazin-1-yl)propoxy)benzenesulfonamide]
CN(C)CCOc1ccc(S(=O)(=O)NCCCc2c[nH]c3ccccc23)cc1 [Example 21, N-(3-(1H-indol-3-yl)propyl)-4-(2-(dimethylamino)ethoxy)benzenesulfonamide]
CCCCOc1ccc(S(=O)(=O)NCCC(=O)c2ccccc2)cc1 [Example 12, 4-butoxy-N-(3-oxo-3-phenylpropyl)benzenesulfonamide]

IC50, 1 to 10 µM:
CN1CCN(c2cccc(Nc3ccc(S(=O)(=O)NCCCc4c[nH]c5ccc(Cl)cc45)cc3)n2)CC1 [Example 131, N-(3-(5-chloro-1H-indol-3-yl)propyl)-4-((6-(4-methylpiperazin-1-yl)pyridin-2-yl)amino)benzenesulfonamide]
O=S(=O)(NCCCc1c[nH]c2ccc(F)cc12)c1ccc(OCCCN2CCCCC2)cc1 [Example 84, N-(3-(5-fluoro-1H-indol-3-yl)propyl)-4-(3-(piperidin-1-yl)propoxy)benzenesulfonamide]
CN1CCN(CCCOc2ccc(S(=O)(=O)NCCCc3c[nH]c4ccc(Cl)cc34)cc2)CC1=O [Example 162, N-(3-(5-chloro-1H-indol-3-yl)propyl)-4-(3-(4-methyl-3-oxopiperazin-1-yl)propoxy)benzenesulfonamide]
O=S(=O)(NCCCc1c[nH]c2ccc(F)cc12)c1ccc(OCCCN2CCN(CC(F)(F)F)CC2)cc1 [Example 74, N-(3-(5-fluoro-1H-indol-3-yl)propyl)-4-(3-(4-(2,2,2-trifluoroethyl)piperazin-1-yl)propoxy)benzenesulfonamide]
CN1CCN(c2ccc(Nc3ccc(S(=O)(=O)NCCCc4c[nH]c5ccc(Cl)cc45)cc3)cc2)CC1 [Example 142, N-(3-(5-chloro-1H-indol-3-yl)propyl)-4-((4-(4-methylpiperazin-1-yl)phenyl)amino)benzenesulfonamide]
CCN1CCN(CCCOc2ccc(S(=O)(=O)NCCCc3c[nH]c4ccc(F)cc34)cc2)CC1 [Example 63, 4-(3-(4-ethylpiperazin-1-yl)propoxy)-N-(3-(5-fluoro-1H-indol-3-yl)propyl)benzenesulfonamide]
Cc1ccc2[nH]cc(CCCNS(=O)(=O)c3ccc(OCCCN4CCN(C)CC4)cc3)c2c1 [Example 67, N-(3-(5-methyl-1H-indol-3-yl)propyl)-4-(3-(4-methylpiperazin-1-yl)propoxy)benzenesulfonamide]
